The results in this text go back to the OligoGym collection.

One data set concerns the target KRAS. The following applies: ASO.
For a further data set, the target named is HBV. Conditions: ASO.

“And” between values parts separate entries of the source, which are not always exact repeats. Identical values can stand only once. After the bases stand the sugars from the 5' end (letter, count) and the backbone: PS all phosphorothioate, else s phosphorothioate and o phosphodiester by linkage. HELM strings list units from the 5' end as sugar, base in round brackets, then linkage (d deoxyribose, r ribose, m 2'-O-methyl, p phosphodiester). Methylation of C is not given here. [moe] = 2'-O-(2-methoxyethyl) (MOE); [cEt] = constrained ethyl (cEt); [sp] = phosphorothioate linkage; e = 2'-O-(2-methoxyethyl) (MOE); k = constrained ethyl (cEt); d = 2'-deoxy (DNA)

“GGAGTCTTTATAGTAA (sugars k3 d9 k3 e1, PS)” registered a target mRNA inhibition with KRAS (A431, 2 µM) of 41%.
On the same count and under the same terms, next, “AGTGTGACTCAGTTAA (sugars kkdddddddddkekek, PS)”: 48%.
Same read-out and setting: as for “ACCATTCAAAGTTCAC (sugars kkkddddddddkdkdk, PS)”, the figure is 12%.
For “GATTGTGCTGAGCTTG (sugars kkdddddddddkdkdk, PS)”, the target mRNA inhibition came out at 0% with KRAS (A431, 0.185 µM); 17% with KRAS (A431, 0.556 µM); 48% with KRAS (A431, 1.667 µM); 57% with KRAS (A431, 2 µM); 58% with KRAS (A431, 5 µM).
On to AGCTATTAGGAGTCTT (sugars k3 d10 k3, PS), for which the target mRNA inhibition in the data set with KRAS (A431, 2 µM) was 35%.
Still for that read-out and setting: next, “TCCAGTGATACTTTCA (sugars kkdddddddddkdkdk, PS)”: 35%; GTGAAACTCTCTATGA (sugars k3 d10 k3, PS): 28%.
On the same count and under the same terms, as for “CCATTTATGTGACTAG (sugars kkdddddddddkekek, PS)”, the figure is 25%; as for AGGCAAGATGACACTA (sugars k3 d10 k3, PS), 21%.
For “TGTTTATGCAATGTTA (sugars k3 d9 k3 e1, PS)”, the target mRNA inhibition in the data set with KRAS (A431, 0.185 µM) was 43%; with KRAS (A431, 0.556 µM) it was 57%; with KRAS (A431, 1.667 µM), 78%; with KRAS (A431, 2 µM), 72%; with KRAS (A431, 5 µM), 90%; in the data set with KRAS (NCI-H460, 0.037 µM) it was 65.6%.
Regarding GAGATATCCACAGCAG (sugars k3 d10 k3, PS), in the data set with KRAS (A431, 2 µM), the target mRNA inhibition is 49%.
The same measure, in the same setting: next, TTTTAATGTCACAAGC (sugars k3 d10 k3, PS): 52%.
“TGATTTGTCAGCAGGA (sugars kkddddddddddkeke, PS)”: the target mRNA inhibition was found to be 31% in the data set with KRAS (A431, 0.185 µM); 48% with KRAS (A431, 0.556 µM); 67% in the data set with KRAS (A431, 1.667 µM); 55% with KRAS (A431, 2 µM); 8% with KRAS (A431, 5 µM).
Take ATTCAAAGTTCACATA (sugars k3 d10 k3, PS): the target mRNA inhibition with KRAS (A431, 2 µM) was found to be 0%.
Consider TTTAATGTCACAAGCA (sugars k3 d10 k3, PS), for which the target mRNA inhibition was 58% with KRAS (A431, 0.037 µM); 57% with KRAS (A431, 2 µM); 96% and 93% with KRAS (A431, 5 µM); 44.2% with KRAS (NCI-H460, 0.037 µM).
Regarding “CCAGTGATACTTTCAC (sugars kdddddddddkekeke, PS)”, in the data set with KRAS (A431, 2 µM), the target mRNA inhibition came out at 16%.
For ATGGTGAATATCTTCA (sugars k3 d10 k3, PS), the target mRNA inhibition with KRAS (A431, 1.667 µM) was 45% and 31%; with KRAS (A431, 2 µM) it was 64%; with KRAS (A431, 5 µM) it was 70% and 65%.
For AACCAGTGTTAAGAGA (sugars k3 d10 k3, PS), the target mRNA inhibition with KRAS (A431, 2 µM) was found to be 35%.
Turning to “RNA1{[moe](A)[sp].[cEt](G)[sp].d(G)[sp].d(T)[sp].d(G)[sp].d(A)[sp].d(A)[sp].d(G)[sp].d(C)[sp].d(G)[sp].d(A)[sp].d(A)[sp].[cEt](G)[sp].[moe](T)[sp].[cEt](G)[sp].[moe](C)}$$$$V2.0”, the target mRNA inhibition in the data set with HBV (HepG2, 0.0092593 µM) was 12%; with HBV (HepG2, 0.0277778 µM), 36%; with HBV (HepG2, 0.07 µM), 78% and 85%; with HBV (HepG2, 0.0833333 µM), 67%; with HBV (HepG2, 0.25 µM) it was 80%.
As to “RNA1{[moe](C)[sp].[moe](C)[sp].[moe](G)[sp].[moe](C)[sp].[moe](A)[sp].[moe](G)[sp].d(T)[sp].d(A)[sp].d(T)[sp].d(G)[sp].d(G)[sp].d(A)[sp].d(T)[sp].d(C)[sp].d(G)[sp].[moe](G)[sp].[moe](C)}$$$$V2.0”, in the data set with HBV (HepG2, 0.07 µM), the target mRNA inhibition is 90% and 66%.
On the same count and under the same terms, next, “RNA1{[moe](G)[sp].[moe](A)[sp].[moe](A)[sp].[moe](C)[sp].[moe](C)[sp].d(A)[sp].d(C)[sp].d(T)[sp].d(G)[sp].d(A)[sp].d(A)[sp].d(C)[sp].d(A)[sp].d(A)[sp].[moe](A)[sp].[moe](T)[sp].[moe](G)}$$$$V2.0”: 48% and 27%.
Still for that read-out and setting: as for “RNA1{[moe](T)[sp].[moe](T)[sp].[moe](C)[sp].[moe](C)[sp].[moe](G)[sp].d(C)[sp].d(A)[sp].d(G)[sp].d(T)[sp].d(A)[sp].d(T)[sp].d(G)[sp].d(G)[sp].d(A)[sp].[moe](T)[sp].[moe](C)[sp].[moe](G)}$$$$V2.0”, the figure is 65% and 59%; as for “RNA1{[moe](G)[sp].[moe](A)[sp].[moe](T)[sp].[moe](G)[sp].d(A)[sp].d(G)[sp].d(G)[sp].d(C)[sp].d(A)[sp].d(T)[sp].d(A)[sp].d(G)[sp].d(C)[sp].[moe](A)[sp].[moe](G)[sp].[moe](C)[sp].[moe](A)}$$$$V2.0”, 0% and 13%.
On the same count and under the same terms, next, “RNA1{[moe](C)[sp].[cEt](T)[sp].d(G)[sp].d(G)[sp].d(A)[sp].d(G)[sp].d(C)[sp].d(C)[sp].d(A)[sp].d(C)[sp].d(C)[sp].d(A)[sp].[cEt](G)[sp].[moe](C)[sp].[cEt](A)[sp].[moe](G)}$$$$V2.0”: 56%.
Turning to “RNA1{[moe](G)[sp].[cEt](C)[sp].d(A)[sp].d(G)[sp].d(A)[sp].d(G)[sp].d(G)[sp].d(T)[sp].d(G)[sp].d(A)[sp].d(A)[sp].d(G)[sp].[cEt](C)[sp].[moe](G)[sp].[cEt](A)[sp].[moe](A)}$$$$V2.0”, the target mRNA inhibition with HBV (HepG2, 0.0092593 µM) is 21%; with HBV (HepG2, 0.0277778 µM), 48%; with HBV (HepG2, 0.07 µM), 80% and 85%; with HBV (HepG2, 0.0833333 µM) it was 74%; with HBV (HepG2, 0.25 µM), 88%.
Regarding “RNA1{[moe](T)[sp].[moe](T)[sp].[moe](C)[sp].[moe](C)[sp].d(G)[sp].d(C)[sp].d(A)[sp].d(G)[sp].d(T)[sp].d(A)[sp].d(T)[sp].d(G)[sp].d(G)[sp].[moe](A)[sp].[moe](T)[sp].[moe](C)}$$$$V2.0”, in the data set with HBV (HepG2, 0.07 µM), the target mRNA inhibition is 43% and 49%.
